Where a name gives a salt, the structure may show the parent alone. Read-outs that look alike come from different tables or passages of the source. Blank lines part the entries; values can stand above or below the molecule they belong to.
Legend:
[1] = Release of antibiotic from hydrogel or PBS in dialysis chamber; assay type: physicochemical
Method: For this assessment, a 0.5 ml sample of hydrogel plus drug or PBS plus drug was placed into a medi-dialysis chamber, and the chamber was placed in a beaker containing 100 ml of PBS. The remaining amount of drug in the dialysis chamber was monitored using UV spectroscopy at various time points. […] The release was monitored as described above. […] Another drug release study was performed, with Moxi-FB and Besi-HCl as the antibiotics, a hydrogel with 7.5 mg/ml CMHA-S, and the antibiotics incorporated at 10 mg/ml. For this study, the samples were placed in a dialysis chamber that was then placed in a tube that contained 10 ml of PBS. The dialysis chamber was transferred to a new tube at each time point, and the dialysate was analyzed by UV absorption (rather than the material inside the dialysis chamber), and the released amount of drug was calculated (rather than the amount remaining). In this experimental set-up, drug release from the hydrogel was slower than from PBS (FIGS. 4A and 4B). Despite the poor water solubility of Besi-HCl compared to Moxi-FB, Besi-HCl was still released from the hydrogel.

[2] = cited from earlier work
[3] = Rheological testing (parallel plate rheometer): viscosity and shear-thinning; assay type: physicochemical; conditions: antibiotic 1 mg/ml incorporated in hydrogel (CMHA-S about 7.5 mg/ml)
Method: Thiol-modified carboxymethyl HA (CMHA-S) was synthesized as described in Lawyer et al. and Wendling et al., with a thiol modification of 0.1, 0.2, 0.4, or 0.7 μmol thiol/mg. Hydrogels were created by dissolving CMHA-S in phosphate-buffered saline (PBS; pH 7.4). The CMHA-S was disulfide crosslinked under continuous mixing with the addition of sodium hypochlorite. Rheological testing was performed using a parallel plate format rheometer with a 25 mm-diameter stainless steel geometry. Samples (5-6 ml) of hydrogel were placed in a 35 mm Petri dish, and the geometry was lowered to a gap of 5 mm. To determine viscosity and shear-thinning, the shear rate was varied from 0.1 to 10 Hz. A decreasing viscosity as shear rate increases indicates shear-thinning behavior. Table 1 provides the thiol modification of the CMHA-S, concentration of CMHA-S, and resultant viscosity of the hydrogel (at 2.5 Hz) for 4 hydrogel formulations.
(§1) Viscosity, pH, and refractive index (RI) were measured for hydrogels described in Example 2 with and without antibiotic incorporated. […] Viscosity was determined as described in Example 1. RI was measured with a refractometer and pH was measured with a pH meter.

[4] = Refractive index by refractometer; assay type: physicochemical; conditions: antibiotic 1 mg/ml incorporated in hydrogel (CMHA-S about 7.5 mg/ml)
Method: as §1

[5] = pH by pH meter; assay type: physicochemical; conditions: antibiotic 1 mg/ml incorporated in hydrogel (CMHA-S about 7.5 mg/ml)
Method: as §1

[6] = tested on: Pseudomonas aeruginosa; experiment: Zone of inhibition (ZOI) study of dialysate samples; assay type: cell-based; conditions: P. aeruginosa
Method: (§2) To verify the efficacy of a drug in the hydrogel, zone of inhibition (ZOI) studies were conducted. […] Samples of the dialysate were collected at 0, 1, 2, 4, and 8 hours. Filter paper disks were soaked in each sample, placed on a bacteria-inoculated plate, and the ZOIs were compared between PBS group and hydrogel group.

[7] = tested on: Staphylococcus aureus; experiment: as above; assay type: cell-based; conditions: S. aureus
Method: as §2

[8] = released from PBS (1 mg/ml), dialysate at 4 hrs
[9] = released from PBS (1 mg/ml), dialysate at 8 hrs
[10] = released from hydrogel (CMHA-S 7.5 mg/ml, drug 1 mg/ml), dialysate at 8 hrs

drug release from hydrogel compared with PBS ([1]; antibiotic 10 mg/ml in hydrogel with 7.5 mg/ml CMHA-S, dialysis chamber in 10 ml PBS, new tube at each time point, dialysate UV): slower
SMILES: N[C@@H]1CCCCN(c2c(F)cc3c(=O)c(C(=O)O)cn(C4CC4)c3c2Cl)C1 [Besi-HCl, besifloxacin hydrochloride]
solubility in water [2]: about 1 mg/ml

SMILES: COc1c(N2C[C@@H]3CCCN[C@@H]3C2)c(F)cc2c(=O)c(C(=O)O)cn(C3CC3)c12 [Moxi-FB, moxifloxacin]
solubility in water [2]: about 1 mg/ml

Viscosity at 2.5 Hz ([3]; hydrochloride): 1.6 Pa · s | Refractive index ([4]; hydrochloride): 1.3355 | pH ([5]; hydrochloride): 7.0 | drug release from hydrogel compared with PBS ([1]; drug 1 mg/ml in hydrogel #4 (CMHA-S 4.0 mg/ml)): slightly slower | time within which release was complete ([1]; drug 1 mg/ml in hydrogel #4 (CMHA-S 4.0 mg/ml), medi-dialysis chamber in 100 ml PBS): ≤ 4 h | drug release from hydrogel compared with PBS ([1]; drug 1 mg/ml in hydrogel (CMHA-S about 7.5 mg/ml), medi-dialysis chamber in 100 ml PBS): only slightly slowed down
SMILES: COc1c(N2C[C@@H]3CCCN[C@@H]3C2)c(F)cc2c(=O)c(C(=O)O)cn(C3CC3)c12 [Moxi-HCl, moxifloxacin hydrochloride]
ZOI [6, 8]: 24.7 ± 2.8 mm | ZOI [6, 9]: 20.5 ± 1.8 mm | ZOI ([6]; released from hydrogel (CMHA-S 7.5 mg/ml, drug 1 mg/ml), dialysate at 1 hrs): 28.7 ± 0.3 mm | ZOI ([6]; released from hydrogel (CMHA-S 7.5 mg/ml, drug 1 mg/ml), dialysate at 4 hrs): 26.8 ± 1.4 mm | ZOI [6, 10]: 26.5 ± 3.2 mm | ZOI ([7]; released from PBS (1 mg/ml), dialysate at 2 hrs): 28.3 ± 1.0 mm | ZOI [7, 8]: 26.5 ± 2.5 mm | ZOI [7, 9]: 23.5 ± 2.8 mm | ZOI [7, 10]: 27.2 ± 1.3 mm | solubility in water ([2]; hydrochloride): ~20 mg/mL

Viscosity at 2.5 Hz [3]: 1.4 Pa · s | Refractive index [4]: 1.3355 | pH [5]: 8.6
SMILES: NC[C@H]1O[C@H](O[C@H]2[C@H](O)[C@@H](O[C@H]3O[C@H](CO)[C@@H](O)[C@H](N)[C@H]3O)[C@H](N)C[C@@H]2N)[C@H](N)C[C@@H]1O [Tobramycin, tobramycin]
solubility in water [2]: > 50 mg/mL

From patent US11376214B2, “Compositions and methods for treatment of ocular diseases” (KIORA PHARMACEUTICALS, INC., priority 2019, dated 2022)
